≈ marks a conversion by molar mass, not a printed value.
How the values were obtained:
[1] = target: T1, UDP-3-O-acyl-N-acetylglucosamine deacetylase (Escherichia coli K-12) (UniProt P0A725); assay: Inhibition of LpxC in Escherichia coli AB1157 assessed as reduction in microbial growth incubated for 22 hrs by MTT assay
T1 sequence (whole entry): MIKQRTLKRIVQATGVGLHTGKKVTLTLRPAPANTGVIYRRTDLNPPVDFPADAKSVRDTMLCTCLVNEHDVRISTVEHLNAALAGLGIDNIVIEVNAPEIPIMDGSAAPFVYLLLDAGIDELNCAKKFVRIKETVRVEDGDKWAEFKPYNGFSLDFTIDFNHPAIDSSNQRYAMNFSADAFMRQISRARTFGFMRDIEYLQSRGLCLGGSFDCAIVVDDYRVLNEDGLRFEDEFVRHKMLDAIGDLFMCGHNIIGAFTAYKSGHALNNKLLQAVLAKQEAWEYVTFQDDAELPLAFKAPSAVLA

[2] = target: T2, UDP-3-O-acyl-N-acetylglucosamine deacetylase (Pseudomonas aeruginosa (strain ATCC 15692 / PAO1 / 1C / PRS 101 / LMG12228)) (UniProt P47205)
T2 sequence (whole entry): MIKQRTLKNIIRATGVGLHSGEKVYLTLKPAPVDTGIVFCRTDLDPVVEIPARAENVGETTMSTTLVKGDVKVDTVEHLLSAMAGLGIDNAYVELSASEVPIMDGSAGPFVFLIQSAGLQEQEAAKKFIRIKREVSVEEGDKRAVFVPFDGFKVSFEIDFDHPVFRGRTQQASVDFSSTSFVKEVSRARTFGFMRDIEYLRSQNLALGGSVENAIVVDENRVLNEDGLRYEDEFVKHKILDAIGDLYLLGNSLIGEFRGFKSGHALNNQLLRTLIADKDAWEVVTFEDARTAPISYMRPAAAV

[3] = tested on: Pseudomonas aeruginosa PA14; assay: Inhibition of LpxC in Pseudomonas aeruginosa PA14 assessed as reduction in microbial growth incubated for 22 hrs by MTT assay
[4] = target: T1, UDP-3-O-acyl-N-acetylglucosamine deacetylase (Escherichia coli K-12); assay: Inhibition of LpxC in Escherichia coli DH5[alpha] assessed as reduction in microbial growth incubated for 22 hrs by MTT assay
[5] = Elimination half life in mouse liver microsomes at 0.1 umol/L in presence of NADPH by LC/MS/MS method; assay type: ADME, microsome; settings: read-out: beta t1/2
[6] = Elimination half life in human liver microsomes at 0.1 umol/L in presence of NADPH by LC/MS/MS method; assay type: ADME, microsome; settings: read-out: beta t1/2
[7] = Intrinsic clearance in mouse liver microsomes assessed as per gram protein at 0.1 umol/L in presence of NADPH by LC/MS/MS method; assay type: ADME, microsome; design: unit not given here; settings: 0.1 µM
[8] = Intrinsic clearance in human liver microsomes assessed as per gram protein at 0.1 umol/L in presence of NADPH by LC/MS/MS method; assay type: ADME, microsome; settings: 0.1 µM
[9] = Stability in human liver microsomes assessed as drug netabolism at 0.1 umol/L after 60 mins in presence of NADPH by LC/MS/MS method; assay type: ADME, microsome; settings: 1 h, 0.1 µM

Row | MIC [1] [µg/mL] | MIC [2] [µg/mL] | MIC [3] [µg/mL] | MIC [4] [µg/mL] | half-life at 0.1 µM [5] [min] | half-life at 0.1 µM [6] [min] | intrinsic clearance in liver microsomes [7] | intrinsic clearance [8] [mL/min/g] | Stability [9] | Compound
1 | 40 | 100 (≈ 276 µM) | 50 | 20 | – | – | – | – | – | C[C@@H](O)[C@H](NS(=O)(=O)c1ccc(C#CC#CC2CC2)cc1)C(=O)NO
2 | 1 | 0.31 (≈ 0.892 µM) | 0.31 | 0.4 | – | – | – | – | – | CC(CCc1ccc(-c2ccccc2)cc1)(C(=O)NO)S(C)(=O)=O (racemic)
3 | 1.25 | 10 (≈ 28.1 µM) | 10 | 2.5 | – | – | – | – | – | COc1cc(C#CC#CC2CC2)ccc1C(=O)N[C@H](C(=O)NO)[C@@H](C)O
4 | 0.024 | 0.19 (≈ 0.582 µM) | 0.19 | 0.024 | 190 | 633 | 11 | 3 | – | C[C@@H](O)[C@H](NC(=O)c1ccc(C#CC#CC2CC2)cc1)C(=O)NO
5 | 0.019 | 0.31 (≈ 0.867 µM) | 0.31 | 0.019 | 135 | – | 16 | 0 | Stable | CC(C)(N)[C@H](NC(=O)c1ccc(C#CC#CC2CC2)c(F)c1)C(=O)NO
6 | > 256 | > 256 | > 256 | > 256 | – | – | – | – | – | CC(CCc1ccc(-c2ccccc2)cc1)(C(=O)Nc1ccccc1N)S(C)(=O)=O (stereo not given)
7 | 0.078 | 0.625 (≈ 1.83 µM) | 0.625 | 0.156 | 233 | 273 | 9 | 8 | – | C[C@@H](O)[C@H](NC(=O)c1ccc(C#CC#CC2CC2)cc1O)C(=O)NO
8 | 0.078 | 0.625 (≈ 1.76 µM) | 0.625 | 0.078 | 95 | – | 22 | 0 | Stable | CC(C)(N)[C@H](NC(=O)c1ccc(C#CC#CC2CC2)cc1O)C(=O)NO
9 | > 256 | > 256 | > 256 | > 256 | – | – | – | – | – | C[C@@H](O)[C@H](NC(=O)[C@@H]1CN(c2ccc(-c3ccccc3)cc2)C(=O)O1)C(=O)NO
10 | 0.039 | 0.156 (≈ 0.46 µM) | 0.078 | 0.012 | 206 | 3420 | 10 | 1 | – | CC(C)(N)[C@H](NC(=O)c1ccc(C#CC#CC2CC2)cc1)C(=O)NO
11 | 0.04 | 0.625 (≈ 1.83 µM) | 0.625 | 0.04 | – | – | – | – | – | C[C@@H](O)[C@H](NC(=O)c1ccc(C#CC#CC2CC2)cc1N)C(=O)NO
12 | 80 | 40 (≈ 114 µM) | 40 | 40 | – | – | – | – | – | C[C@@H](O)[C@H](NC(=O)c1ccc(C#CC#CC2CC2)cc1C#N)C(=O)NO
13 | 0.4 | 0.63 (≈ 1.83 µM) | 0.63 | 0.31 | 143 | 2660 | 15 | 1 | – | C[C@@H](O)[C@H](NC(=O)c1ccc(C#CC#CC2CC2)c(F)c1)C(=O)NO
14 | 0.156 | – | – | 0.156 | – | – | – | – | – | C[C@@H](O)[C@H](NC(=O)c1ccc(C#Cc2ccc(CN3CCOCC3)cc2)cc1)C(=O)NO
15 | 0.078 | 0.625 (≈ 1.75 µM) | 0.31 | 0.04 | 240 | – | 9 | 0 | Stable | CC(C)(N)[C@H](NC(=O)c1ccc(C#CC#CC2CC2)cc1F)C(=O)NO
16 | 0.156 | 5 (≈ 14.7 µM) | 5 | 0.156 | – | – | – | – | – | Cc1cc(C#CC#CC2CC2)ccc1C(=O)N[C@H](C(=O)NO)[C@@H](C)O
17 | 0.31 | 2.5 (≈ 7.26 µM) | 1.25 | 0.31 | 85 | 200 | 25 | 11 | – | C[C@@H](O)[C@H](NC(=O)c1ccc(C#CC#CC2CC2)cc1F)C(=O)NO
18 | 1.25 | 20 (≈ 61.1 µM) | 10 | 0.625 | – | – | – | – | – | C[C@@H](O)[C@H](NC(=O)c1ccc(C#CC#CC2CC2)cn1)C(=O)NO
19 | 0.192 | 6.25 (≈ 17.3 µM) | 6.25 | 0.048 | – | – | – | – | – | C[C@@H](O)[C@H](NC(=O)c1ccc(C#CC#CC2CC2)cc1Cl)C(=O)NO
20 | > 256 | > 256 | > 256 | > 256 | – | – | – | – | – | C[C@@H](O)[C@@H](CN(O)C=O)NC(=O)c1ccc(C#CC#CC2CC2)cc1
21 | 0.156 | 10 (≈ 25.5 µM) | 10 | 0.31 | – | – | – | – | – | C[C@@H](O)[C@H](NC(=O)c1ccc(C#CC#CC2CC2)cc1OC(F)F)C(=O)NO
22 | > 256 | > 256 | > 256 | > 256 | – | – | – | – | – | C[C@@H](O)[C@H](NC(=O)[C@@H]1CN(c2ccc(C#Cc3ccccc3)cc2)C(=O)O1)C(=O)NO
23 | > 256 | > 256 | > 256 | > 256 | – | – | – | – | – | C[C@@H](O)[C@H](NC(=O)[C@H]1CN(c2ccc(C#Cc3ccccc3)cc2)C(=O)O1)C(=O)NO
24 | > 256 | > 256 | > 256 | > 256 | – | – | – | – | – | C[C@@H](O)[C@H](NC(=O)[C@H]1CN(c2ccc(-c3ccccc3)cc2)C(=O)O1)C(=O)NO
25 | 0.6 | 5 (≈ 13.5 µM) | 5 | 0.4 | – | – | – | – | – | C[C@@H](O)[C@H](NC(=O)c1ccc(C#CC#CC2CC2)cc1[N+](=O)[O-])C(=O)NO

From ChEMBL document CHEMBL4177739, “Design, synthesis and structure-activity relationship evaluation of novel LpxC inhibitors as Gram-negative antibacterial agents” (Bioorg Med Chem Lett, 2018)
